Reference: patent US20110098296A1, “Thiazole And Oxazole Kinase Inhibitors” (priority 2007, published 2011)
Where a name gives a salt, the structure may show the parent alone.

Assays:
HN5 tumor cells = assay: Method C: Cell Growth Inhibition Assay (CellTiter-Glo), HN5; format: cell-based; details: Homo sapiens, 72 h, 3 days, 4-parameter fit
How it was run: (§1)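 Cells were seeded at 500 per well and dosed the next day with nine serial 1:3 compound dilutions (0.2% DMSO final), then grown 3 days at 37° C, 5% CO2. ATP was measured by CellTiter-Glo luminescence, and IC50 was interpolated by 4-parameter fit of percent inhibition versus DMSO controls.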

A375P F11s tumor cells = assay: Method C: Cell Growth Inhibition Assay (CellTiter-Glo), A375P F11s; format: cell-based; details: Homo sapiens, 72 h, 3 days, 4-parameter fit
How it was run: as §1

BT474 tumor cells = assay: Method C: Cell Growth Inhibition Assay (CellTiter-Glo), BT474; format: cell-based; details: Homo sapiens, BT-474, 72 h, 3 days, 4-parameter fit
SK-MEL-3 tumor cells = assay: Method C: Cell Growth Inhibition Assay (CellTiter-Glo), SK-MEL-3; format: cell-based; details: Homo sapiens, SK-MEL3, 72 h, 3 days, 4-parameter fit
How it was run: (§2)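 Luminescent ATP signal (CellTiter-Glo, after 30 min room-temperature equilibration) served as a surrogate for cell number after a 3-day compound exposure at 37° C. Cells were plated at 500/well and treated with serially diluted compound at 0.2% DMSO. IC50 values are 4-parameter fits against DMSO-treated wells.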

HT-29 tumor cells = assay: Method C: Cell Growth Inhibition Assay (CellTiter-Glo), HT-29; format: cell-based; details: Homo sapiens, HT-29, 72 h, 3 days, 4-parameter fit
How it was run: as §1

Colo205 tumor cells = assay: Method C: Cell Growth Inhibition Assay (CellTiter-Glo), Colo205; format: cell-based; details: Homo sapiens, COLO 205, 72 h, 3 days, 4-parameter fit
How it was run: as §2

ErbB2 = target: T1, ErbB2 (Homo sapiens, UniProt P04626); assay: ErbB-2 substrate phosphorylation assay (HTRF); format: biochemical; details: Method (A): Enzyme Mix incubated with compound at 20° C. for 1 hr, reaction started by adding Substrate Mix
T1 construct: made in house; host or cells: baculovirus expression system
T1 sequence (P04626 23-1255): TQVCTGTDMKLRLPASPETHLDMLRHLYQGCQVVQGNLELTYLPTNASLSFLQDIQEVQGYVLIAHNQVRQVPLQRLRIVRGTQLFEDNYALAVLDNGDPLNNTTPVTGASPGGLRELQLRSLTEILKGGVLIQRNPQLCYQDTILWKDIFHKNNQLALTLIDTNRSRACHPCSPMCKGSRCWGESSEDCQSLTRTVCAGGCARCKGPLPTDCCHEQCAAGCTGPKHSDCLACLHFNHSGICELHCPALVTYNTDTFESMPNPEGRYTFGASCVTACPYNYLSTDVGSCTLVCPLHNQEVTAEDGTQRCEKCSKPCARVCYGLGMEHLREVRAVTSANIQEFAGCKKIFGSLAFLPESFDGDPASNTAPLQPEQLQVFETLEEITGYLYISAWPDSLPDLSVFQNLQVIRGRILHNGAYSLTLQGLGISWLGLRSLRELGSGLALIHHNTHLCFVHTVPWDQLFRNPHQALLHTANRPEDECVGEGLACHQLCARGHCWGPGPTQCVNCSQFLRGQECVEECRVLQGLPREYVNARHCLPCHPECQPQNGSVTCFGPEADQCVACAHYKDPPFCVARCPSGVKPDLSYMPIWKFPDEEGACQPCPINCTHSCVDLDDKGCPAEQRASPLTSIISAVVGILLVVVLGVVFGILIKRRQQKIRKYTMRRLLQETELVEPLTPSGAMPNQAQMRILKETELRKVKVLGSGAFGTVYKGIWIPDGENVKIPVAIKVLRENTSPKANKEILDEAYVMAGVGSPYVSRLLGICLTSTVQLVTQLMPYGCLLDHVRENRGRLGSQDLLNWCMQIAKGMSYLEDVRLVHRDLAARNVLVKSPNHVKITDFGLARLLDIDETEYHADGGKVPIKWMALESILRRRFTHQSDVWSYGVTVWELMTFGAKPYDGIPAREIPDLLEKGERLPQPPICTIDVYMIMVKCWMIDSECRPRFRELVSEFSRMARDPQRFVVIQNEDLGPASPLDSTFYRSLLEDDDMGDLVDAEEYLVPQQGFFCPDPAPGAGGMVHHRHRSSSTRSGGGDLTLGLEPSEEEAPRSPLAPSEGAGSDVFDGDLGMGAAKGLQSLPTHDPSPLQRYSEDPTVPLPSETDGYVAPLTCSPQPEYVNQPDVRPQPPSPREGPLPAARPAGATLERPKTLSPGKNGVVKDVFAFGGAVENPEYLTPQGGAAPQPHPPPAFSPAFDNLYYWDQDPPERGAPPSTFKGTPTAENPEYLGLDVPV
How it was run: (§3)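 Baculovirus-expressed kinase (0.8 nM EGFR or 10 nM ErbB2 in enzyme mix) with Peptide C 0.8 μM and ATP 20 μM (substrate-mix levels), MOPS pH 7.5, MnCl2; 90 min, 20 °C, HTRF anti-phosphotyrosine. Method A adds 1 h enzyme–compound preincubation; B none. pIC50, final compound 0.00027–47.6 μM.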

EGFR = target: T2, EGFR (Homo sapiens, UniProt P00533); assay: EGFR substrate phosphorylation assay (HTRF); format: biochemical; details: Method (A): Enzyme Mix incubated with compound at 20° C. for 1 hr, reaction started by adding Substrate Mix
T2 construct: made in house; host or cells: baculovirus expression system
T2 sequence (P00533 25-1210): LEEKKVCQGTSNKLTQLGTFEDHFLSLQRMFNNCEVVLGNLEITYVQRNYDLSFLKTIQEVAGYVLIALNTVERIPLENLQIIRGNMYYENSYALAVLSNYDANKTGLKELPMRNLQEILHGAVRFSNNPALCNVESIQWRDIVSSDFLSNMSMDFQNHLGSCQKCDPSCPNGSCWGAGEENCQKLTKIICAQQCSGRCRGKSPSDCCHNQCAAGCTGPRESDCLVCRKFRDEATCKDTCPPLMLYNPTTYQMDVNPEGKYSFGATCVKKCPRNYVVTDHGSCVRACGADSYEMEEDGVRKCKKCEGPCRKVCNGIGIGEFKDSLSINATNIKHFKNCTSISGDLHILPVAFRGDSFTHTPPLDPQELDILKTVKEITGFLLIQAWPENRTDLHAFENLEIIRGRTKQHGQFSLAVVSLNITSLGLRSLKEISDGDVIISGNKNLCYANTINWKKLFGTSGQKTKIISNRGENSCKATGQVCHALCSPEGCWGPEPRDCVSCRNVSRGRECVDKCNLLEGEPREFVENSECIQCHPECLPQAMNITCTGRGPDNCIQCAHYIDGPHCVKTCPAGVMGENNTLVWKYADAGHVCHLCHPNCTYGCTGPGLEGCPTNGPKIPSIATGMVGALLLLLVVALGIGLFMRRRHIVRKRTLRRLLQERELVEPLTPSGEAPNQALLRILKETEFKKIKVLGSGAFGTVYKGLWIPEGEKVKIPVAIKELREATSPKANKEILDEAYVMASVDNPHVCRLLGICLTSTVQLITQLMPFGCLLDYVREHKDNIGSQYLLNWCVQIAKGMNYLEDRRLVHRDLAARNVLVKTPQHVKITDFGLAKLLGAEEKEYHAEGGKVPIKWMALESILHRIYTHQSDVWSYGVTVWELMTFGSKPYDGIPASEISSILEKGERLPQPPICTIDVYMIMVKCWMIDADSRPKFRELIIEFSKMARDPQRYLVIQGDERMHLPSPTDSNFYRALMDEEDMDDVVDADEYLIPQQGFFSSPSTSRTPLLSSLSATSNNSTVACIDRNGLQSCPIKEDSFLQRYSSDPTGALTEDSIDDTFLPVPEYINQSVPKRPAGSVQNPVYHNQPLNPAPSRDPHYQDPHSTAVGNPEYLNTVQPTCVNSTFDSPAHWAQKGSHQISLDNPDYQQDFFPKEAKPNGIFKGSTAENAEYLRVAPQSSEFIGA
How it was run: as §3

SK-MEL-28 tumor cells = assay: Method C: Cell Growth Inhibition Assay (CellTiter-Glo), SK-MEL-28; format: cell-based; details: Homo sapiens, SK-MEL-28, 72 h, 3 days, 4-parameter fit
How it was run: as §1

SMILES | IC50 (HN5 tumor cells) | IC50 (A375P F11s tumor cells) | IC50 (BT474 tumor cells) | IC50 (SK-MEL-3 tumor cells) | IC50 (HT-29 tumor cells) | IC50 (Colo205 tumor cells) | IC50 (ErbB2) | IC50 (EGFR) | IC50 (SK-MEL-28 tumor cells)
CS(=O)(=O)CCN1CCN(c2ccc(Nc3nccc(-c4scnc4-c4cccc(NC(=O)c5c(F)cccc5F)c4)n3)cc2F)CC1 [Example 80, 2,6-Difluoro-N-[3-(5-{2-[(3-fluoro-4-{4-[2-(methylsulfonyl)ethyl]-1-piperazinyl}phenyl)amino]-4-pyrimidinyl}-1,3-thiazol-4-yl)phenyl]benzamide] | < 100 nM | 100 to 1000 nM | < 100 nM | 100 to 1000 nM | 100 to 1000 nM | > 1000 nM | < 100 nM | < 100 nM | 100 to 1000 nM
CC(=O)Nc1nc(-c2cccc(NC(=O)c3c(F)cccc3F)c2)c(-c2ccnc(Nc3cccc(CN4CCCC4)c3)n2)s1 [Example 34, N-{3-[2-(Acetylamino)-5-(2-{[3-(1-pyrrolidinylmethyl)phenyl]amino}-4-pyrimidinyl)-1,3-thiazol-4-yl]phenyl}-2,6-difluorobenzamide] | < 100 nM | 100 to 1000 nM | < 100 nM | 100 to 1000 nM | 100 to 1000 nM | 100 to 1000 nM | < 100 nM | < 100 nM | 100 to 1000 nM
COc1ccc(Nc2nccc(-c3sc(N)nc3-c3cccc(NC(=O)c4c(F)cccc4F)c3)n2)cc1OCCN(C)C [Example 2] | < 100 nM | 100 to 1000 nM | < 100 nM | 100 to 1000 nM | 100 to 1000 nM | < 100 nM | < 100 nM | < 100 nM | 100 to 1000 nM
O=C(Nc1cccc(-c2nc(CO)sc2-c2ccnc(Nc3ccc(OCCN4CCCC4)c(F)c3)n2)c1)c1c(F)cccc1F [Example 126, 2,6-Difluoro-N-{3-[5-{2-[(3-fluoro-4-{[2-(1-pyrrolidinyl)ethyl]oxy}phenyl)amino]-4-pyrimidinyl}-2-(hydroxymethyl)-1,3-thiazol-4-yl]phenyl}benzamide] | < 100 nM | 100 to 1000 nM | < 100 nM | 100 to 1000 nM | 100 to 1000 nM | 100 to 1000 nM | < 100 nM | < 100 nM | 100 to 1000 nM
Cc1nc(-c2cccc(NC(=O)c3ccc(F)cc3)c2)c(-c2ccnc(Nc3ccc(OCCN(C)C)c(Cl)c3)n2)s1 [Example 134, N-[3-(5-{2-[(3-Chloro-4-{[2-(dimethylamino)ethyl]oxy}phenyl)amino]-4-pyrimidinyl}-2-methyl-1,3-thiazol-4-yl)phenyl]-4-fluorobenzamide] | 100 to 1000 nM | > 1000 nM | 100 to 1000 nM | > 1000 nM | 100 to 1000 nM | > 1000 nM | < 100 nM | < 100 nM | > 1000 nM
CN1CCc2ccc(Nc3nccc(-c4sc(N5CCCC5)nc4-c4cccc(NC(=O)c5c(F)cccc5F)c4)n3)cc2C1 [Example 44, 2,6-Difluoro-N-{3-[5-{2-[(2-methyl-1,2,3,4-tetrahydro-7-isoquinolinyl)amino]-4-pyrimidinyl}-2-(1-pyrrolidinyl)-1,3-thiazol-4-yl]phenyl}benzamide] | 100 to 1000 nM | > 1000 nM | 100 to 1000 nM | > 1000 nM | 100 to 1000 nM | 100 to 1000 nM | < 100 nM | < 100 nM | 100 to 1000 nM
CN1CCc2ccc(Nc3nccc(-c4sc(N(C)C)nc4-c4cccc(NC(=O)c5c(F)cccc5F)c4)n3)cc2C1 [Example 38] | < 100 nM | 100 to 1000 nM | 100 to 1000 nM | 100 to 1000 nM | 100 to 1000 nM | 100 to 1000 nM | < 100 nM | < 100 nM | 100 to 1000 nM
CCNc1nc(-c2cccc(NC(=O)c3c(F)cccc3F)c2)c(-c2ccnc(Nc3ccc(OCCN(C)C)c(Cl)c3)n2)s1 [Example 25] | 100 to 1000 nM | 100 to 1000 nM | 100 to 1000 nM | 100 to 1000 nM | 100 to 1000 nM | 100 to 1000 nM | < 100 nM | < 100 nM | 100 to 1000 nM
Cc1nc(-c2cccc(NC(=O)c3c(F)cccc3F)c2)c(-c2ccnc(Nc3ccc(OC4CCN(C(C)C)CC4)c(F)c3)n2)s1 [Example 111, 2,6-Difluoro-N-[3-(5-{2-[(3-fluoro-4-{[1-(1-methylethyl)-4-piperidinyl]oxy}phenyl)amino]-4-pyrimidinyl}-2-methyl-1,3-thiazol-4-yl)phenyl]benzamide] | 100 to 1000 nM | 100 to 1000 nM | < 100 nM | 100 to 1000 nM | 100 to 1000 nM | 100 to 1000 nM | < 100 nM | < 100 nM | 100 to 1000 nM
CN1CCc2ccc(Nc3nccc(-c4sc(NCCCN5CCOCC5)nc4-c4cccc(NC(=O)c5c(F)cccc5F)c4)n3)cc2C1 [Example 31] | < 100 nM | 100 to 1000 nM | 100 to 1000 nM | 100 to 1000 nM | 100 to 1000 nM | 100 to 1000 nM | < 100 nM | < 100 nM | > 1000 nM
CCNc1nc(-c2cccc(NC(=O)c3c(F)cccc3F)c2)c(-c2ccnc(Nc3ccc(CCN4CCCC4)c(F)c3)n2)s1 [Example 26, N-(3-{2-(Ethylamino)-5-[2-({3-fluoro-4-[2-(1-pyrrolidinyl)ethyl]phenyl}amino)-4-pyrimidinyl]-1,3-thiazol-4-yl}phenyl)-2,6-difluorobenzamide trifluoroacetate] | 100 to 1000 nM | 100 to 1000 nM | 100 to 1000 nM | 100 to 1000 nM | 100 to 1000 nM | 100 to 1000 nM | < 100 nM | < 100 nM | 100 to 1000 nM
CN(C)CCOc1cccc(Nc2nccc(-c3scnc3-c3cccc(NC(=O)Cc4cccs4)c3)n2)c1 [Example 84, N-[3-(5-{2-[(3-{[2-(Dimethylamino)ethyl]oxy}phenyl)amino]-4-pyrimidinyl}-1,3-thiazol-4-yl)phenyl]-2-(2-thienyl)acetamide] | > 1000 nM | > 1000 nM | > 1000 nM | > 1000 nM | > 1000 nM | > 1000 nM | < 100 nM | < 100 nM | > 1000 nM
Cc1nc(-c2cccc(NC(=O)c3cc(F)ccc3F)c2)c(-c2ccnc(Nc3ccc(OCCN(C)C)c(F)c3)n2)s1 [Example 128, N-[3-(5-{2-[(4-{[2-(Dimethylamino)ethyl]oxy}-3-fluorophenyl)amino]-4-pyrimidinyl}-2-methyl-1,3-thiazol-4-yl)phenyl]-2,5-difluorobenzamide] | 100 to 1000 nM | > 1000 nM | 100 to 1000 nM | > 1000 nM | 100 to 1000 nM | > 1000 nM | < 100 nM | < 100 nM | > 1000 nM
Cc1nc(-c2cccc(NC(=O)c3cccc(C(F)(F)F)c3)c2)c(-c2ccnc(Nc3ccc4c(c3)CN(C)CC4)n2)s1 [Example 131, N-[3-(2-Methyl-5-{2-[(2-methyl-1,2,3,4-tetrahydro-7-isoquinolinyl)amino]-4-pyrimidinyl}-1,3-thiazol-4-yl)phenyl]-3-(trifluoromethyl)benzamide] | > 1000 nM | > 1000 nM | > 1000 nM | > 1000 nM | > 1000 nM | > 1000 nM | < 100 nM | < 100 nM | > 1000 nM
Cc1nc(-c2cccc(NC(=O)c3c(F)cccc3F)c2)c(-c2ccnc(Nc3ccc(OC4CCNCC4)c(F)c3)n2)s1 [Example 107, 2,6-DUDuoro-N-{3-[5-(2-{[3-fluoro-4-(4-piperidinyloxy)phenyl]amino}-4-pyrimidinyl)-2-methyl-1,3-thiazol-4-yl]phenyl}benzamide] | < 100 nM | 100 to 1000 nM | < 100 nM | 100 to 1000 nM | 100 to 1000 nM | 100 to 1000 nM | < 100 nM | < 100 nM | 100 to 1000 nM
CN1CCc2ccc(Nc3nccc(-c4sc(N)nc4-c4cccc(NC(=O)c5c(F)cccc5F)c4)n3)cc2C1 [Example 10, trifluoroacetate] | < 100 nM | 100 to 1000 nM | < 100 nM | 100 to 1000 nM | 100 to 1000 nM | 100 to 1000 nM | < 100 nM | < 100 nM | 100 to 1000 nM
NS(=O)(=O)CCc1cccc(Nc2nccc(-c3scnc3-c3cccc(NC(=O)c4c(F)cccc4F)c3)n2)c1 [Example 95, N-(3-{5-[2-({3-[2-(Aminosulfonyl)ethyl]phenyl}amino)-4-pyrimidinyl]-1,3-thiazol-4-yl}phenyl)-2,6-difluorobenzamide] | < 100 nM | 100 to 1000 nM | < 100 nM | > 1000 nM | 100 to 1000 nM | > 1000 nM | < 100 nM | < 100 nM | > 1000 nM
